# Square brackets hold non-standard residues; d marks the D form. Peptide text beside a SMILES is read from it. dHica = CC(C)C[C@@H](O)C(=O)O; NMeV = CN[C@H](C(=O)O)C(C)C; NMeA = CN[C@@H](C)C(=O)O; βAla = NCCC(=O)O
# Target: IN-GCN2 interaction (6xHis-IN / GST-GCN2) (UniProt P04585+Q9P2K8)
# Experiment: biochemical
# Assay type: binding, HIV-1 IN; human GCN2
# Details: for IN-GCN2 interaction (%): screen, single dose 100 µM, single replicate, residual AlphaLISA signal normalized to DMSO control
# Sequence of IN-GCN2 interaction (6xHis-IN / GST-GCN2) (Q9P2K8 192-1024, other chains not shown): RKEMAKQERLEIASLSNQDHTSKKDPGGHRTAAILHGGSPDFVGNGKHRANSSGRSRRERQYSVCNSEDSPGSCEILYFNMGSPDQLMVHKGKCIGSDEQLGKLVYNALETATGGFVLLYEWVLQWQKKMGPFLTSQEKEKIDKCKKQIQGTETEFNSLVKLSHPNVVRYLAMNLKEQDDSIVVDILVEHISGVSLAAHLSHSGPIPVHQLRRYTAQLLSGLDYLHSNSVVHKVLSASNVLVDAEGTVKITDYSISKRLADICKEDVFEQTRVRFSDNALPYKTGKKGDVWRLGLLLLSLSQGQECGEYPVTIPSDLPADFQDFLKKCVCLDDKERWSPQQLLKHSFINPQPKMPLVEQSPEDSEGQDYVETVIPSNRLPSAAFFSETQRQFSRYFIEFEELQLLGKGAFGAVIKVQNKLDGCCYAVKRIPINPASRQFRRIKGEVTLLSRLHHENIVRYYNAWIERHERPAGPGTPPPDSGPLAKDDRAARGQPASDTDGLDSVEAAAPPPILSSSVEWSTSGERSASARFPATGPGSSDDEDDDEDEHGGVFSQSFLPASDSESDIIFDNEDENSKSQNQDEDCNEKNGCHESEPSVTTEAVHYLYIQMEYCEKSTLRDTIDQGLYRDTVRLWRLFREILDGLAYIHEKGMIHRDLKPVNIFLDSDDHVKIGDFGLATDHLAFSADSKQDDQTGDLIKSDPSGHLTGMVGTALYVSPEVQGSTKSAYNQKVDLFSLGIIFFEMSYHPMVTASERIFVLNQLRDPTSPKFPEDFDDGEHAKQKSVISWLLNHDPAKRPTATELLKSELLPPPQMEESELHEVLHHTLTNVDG
Structure (SMILES),IN-GCN2 interaction (%),further results
C[C@@H]1[C@H](O)[C@@H](C)/C=C/C=C/CC/C=C/C=C/C=C/C=C/C(O[C@H]2O[C@H](C)[C@@H](O)[C@H](N)[C@@H]2O)CC2O[C@](O)(CC(O)C(O)CCC(O)CC(O)CC(O)CC(=O)O[C@H]1C)CC(O)C2C(=O)O (stereo partly shown) [NSC150817],68.70,–
COc1cc2cc(c1Cl)N(C)C(=O)C[C@H](OC(=O)[C@H](C)N(C)C(C)=O)[C@]1(C)O[C@H]1[C@H](C)[C@@H]1C[C@@](O)(NC(=O)O1)[C@H](OC)/C=C/C=C(\C)C2 [NSC153858],76.02,–
COC(=O)[C@H]1[C@H](O)[C@H](C)[C@@H](O)[C@](C)(O)/C=C(\C)C2=C3C(=C(C)C(=O)c4c(O)c(c(C)c(OC(C)=O)c43)NC(=O)/C(C)=C/C=C\[C@](C)(O)[C@@H](O)[C@@H](C)[C@H]1O)OCO2 [NSC156219],73.43,–
CC1=CC(=O)C2=C(C)CCC3C(C)C(=O)OC3C12 (stereo not shown) [NSC156236],75.72,–
C=C1C(=O)O[C@H]2[C@H]1CC/C(C)=C/CC[C@@]1(C)O[C@@H]21 [NSC157035],97.44,–
CC1=CC2=C(C=O)C(=O)[C@](C)(O)[C@@H](O)C2=CO1 [NSC159632],82.72,–
COC(=O)[C@@]12OC[C@]34[C@H]([C@@H](O)[C@@H]1O)[C@@]1(C)CC(=O)C(O)=C(C)[C@@H]1C[C@H]3OC(=O)[C@H](OC(=O)/C=C(\C)C(C)C)[C@@H]24 [NSC165563],97.95,–
COC1=CC(=O)C(C2CC(=O)c3c(O)cc(O)cc3O2)=CC1=O (stereo not shown) [NSC169517],98.58,–
COC(=O)C1C(O)C(C)C(O)OC1C(C)C(O)C(C)C=CC=C(C)C(=O)Nc1c(C)c(OC(C)=O)c2c(c1O)C(=O)C(C)=C1OCOC(C(C)=CC(C)=O)=C12 (stereo not shown) [NSC169627],26.60,–
C=C(NC(=O)C(=C)NC(=O)c1csc(C2=NC3c4csc(n4)C4NC(=O)c5csc(n5)C(C(C)(O)C(C)O)NC(=O)C5CSC(=N5)/C(=C\C)NC(=O)C(C(C)O)NC(=O)c5csc(n5)C3(CC2)NC(=O)C(C)NC(=O)C(=C)NC(=O)C(C)NC(=O)C(C(C)CC)NC2C=Cc3c(C(C)O)cc(nc3C2O)C(=O)OC4C)n1)C(N)=O (stereo not shown) [NSC170365],53.53,–
COC(=O)[C@@]12OC[C@]34[C@H]([C@@H](O)[C@@H]1O)[C@@]1(C)CC(=O)C(O)=C(C)[C@@H]1C[C@H]3OC(=O)[C@H](OC(=O)C=C(C)C)[C@@H]24 [NSC172924],122.74,–
CC(C)=CC(=O)O[C@H]1[C@H]2[C@H](OC(=O)[C@H]2C)[C@H](O)[C@@H](C)[C@@H]2C=CC(=O)[C@]21C [NSC176503],99.27,–
CO[C@@H]1/C=C/O[C@@]2(C)Oc3c(C)c(O)c4c(c3C2=O)C(=N[C@@H]2CC[C@@H](O)O[C@H]2C)C=C(NC(=O)/C(C)=C\C(=O)[C@@H]2C[C@@H]2[C@H](O)[C@@H](C)[C@@H](O)[C@@H](C)[C@H](OC(C)=O)[C@@H]1C)C4=O [NSC177383],103.89,–
CCC(C(=O)C(C)C(O)C(C)CCc1ccc(C)c(O)c1C(=O)O)C1OC(CC)(C2CCC(O)(CC)C(C)O2)CC1C (stereo not shown) [NSC177406],94.24,–
CC[C@H]1NC(=O)[C@@H](NC(=O)c2ncccc2O)[C@@H](C)OC(=O)[C@H](c2ccccc2)NC(=O)[C@@H]2CC(=O)CCN2C(=O)[C@H](Cc2ccccc2)N(C)C(=O)[C@@H]2CCCN2C1=O [NSC177858],35.20,–
COc1ccc(O)c2c(=O)c3c(OC)cc4c(c3oc12)[C@@H]1C=CO[C@@H]1O4 [NSC178249],73.18,–
CC1=C(C)C(=O)O[C@@H]([C@](C)(O)[C@]2(O)CC[C@@]3(O)[C@@H]4C[C@H]5O[C@]56CC=CC(=O)[C@]6(C)[C@H]4CC[C@]23C)C1 [NSC179834],38.70,–
CC(=O)C1CCCC(=O)/C=C/C(=O)O1 (stereo not shown) [NSC180515],108.07,–
C=C1CCO[C@]2([C@@H](O)[C@@](C)(O)CO)NC(=O)[C@@]1(O)NC2=O [NSC180516],114.16,–
C[C@H]1O[C@@H](c2ccc3c(c2O)C(=O)C2=C(C3=O)[C@@]3(O)C(=O)C[C@](C)(O)C[C@@]3(O)C=C2)C[C@@H](O)[C@@H]1O [NSC184398],10.15,–
CC[C@H]1OC(=O)[C@H](C)[C@@H](O[C@H]2C[C@@](C)(O)[C@@H](O)[C@H](C)O2)[C@H](C)[C@@H](O)[C@](C)(O)C[C@@H](C)C(=O)[C@H](C)[C@@H](O)[C@H]1C [NSC209870],103.21,–
C=C1C(=O)OC2CC1C(O)C/C(C)=C/CC/C(C)=C/C(O)CC2C (stereo not shown) [NSC210236],107.44,–
C[C@@H]1C[C@H](C)C[C@H](C)[C@@H](O)CC(=O)O[C@H]([C@@H]2CCC[C@H]2C(=O)O)C/C=C/C=C(/C#N)[C@H](O)[C@@H](C)C1 [NSC216128],89.16,–
CO[C@H]1C[C@@H]2CC[C@@H](C)[C@@](O)(O2)C(=O)C(=O)N2CCCC[C@H]2C(=O)O[C@H]([C@H](C)C[C@@H]2CC[C@@H](O)[C@H](OC)C2)CC(=O)[C@H](C)/C=C(\C)[C@@H](O)[C@@H](OC)C(=O)[C@H](C)C[C@H](C)/C=C/C=C/C=C/1C [NSC226080],54.18,–
CO[C@@H]1[C@@H](OC(=O)c2ccc(C)[nH]2)[C@@H](O)[C@H](Oc2ccc3c(O)c(NC(=O)c4ccc(O)c(CC=C(C)C)c4)c(=O)oc3c2Cl)OC1(C)C [NSC227186],36.34,–

Structure (SMILES),IN-GCN2 interaction (%),further results
CC[C@H](C)[C@@H]1NC(=O)[C@@H]2CCCN2C(=O)[C@@H](CC(C)C)OC(=O)CCNC(=O)[C@H](C)N(C)C(=O)[C@H](C(C)C)N(C)C1=O [NSC236580] (cyclo([dHica]PI[NMeV][NMeA][βAla])),98.06,–
CO/N=C1\CC(C)N2C(=O)C(C(C)C)NC(=O)C(NC(=O)c3c4nc5c(C(=O)NC6C(=O)NC(C(C)C)C(=O)N7C(C)CC(O)C7C(=O)N(C)CC(=O)N(C)C(C(C)C)C(=O)OC6C)ccc(C)c5oc-4c(C)c(=O)c3N)C(CO)OC(=O)C(C)N(C)C(=O)CN(C)C(=O)C12 (stereo not shown) [NSC237671],81.33,–
CCCCCCCCCC[C@H](C(=O)O)[C@]1(C(=O)O)CCC(=O)O1 [NSC244387],146.01,–
C/C=C\C(C)=C\[C@H](C)C(=O)C[C@H](O)CC1CC(=O)NC(=O)C1 [NSC248958],116.00,–
CC1CC(O)C2C3(C)CCCC2(COC3=O)C12CCC1(CCOC1=O)O2 (stereo not shown) [NSC250429],134.45,–
COc1c2c(cc3c1C1Oc4c(ccc(O)c4CC=C(C)C)C1CO3)OC(C)(C)C=C2 (stereo not shown) [NSC250430],16.46,–
C=C1C(=O)[C@]23[C@H](O)[C@H]1CC[C@H]2[C@@]12CO[C@]3(O)[C@@H](O)[C@@H]1C(C)(C)CC[C@@H]2O [NSC250682],99.31,–
CO[C@H]1/C=C\C=C(/C)C(=O)NC2=CC(=O)C(N)=C(C[C@@H](C)C[C@H](OC)[C@H](O)[C@@H](C)/C=C(\C)[C@@H]1OC(N)=O)C2=O [NSC255109],108.78,–
COC1=C2CC(C)CC(OC)C(O)C(C)/C=C(\C)C(OC(N)=O)C(OC)/C=C\C=C(/C)C(=O)NC(=C(/C=N/N3CCOCC3)C1=O)C2=O (stereo not shown) [NSC255112],78.82,–
COc1ccc(CC2C(=O)NC(C)C(=O)N(C)C3C(=O)N(C)C(Cc4ccc(O)c(c4)Oc4ccc(cc4)C3O)C(=O)NC(C)C(=O)NC(C)C(=O)N2C)cc1 (stereo not shown) [NSC259968],109.81,–
CCCCCC[C@@H]([C@@H](C)O)n1cnc2c(N)ncnc21 [NSC263164],111.18,–
CCC1(O)CC(OC2CC(N(C)C)C(OC3CC(O)C(OC4CC(O)C(O)C(C)O4)C(C)O3)C(C)O2)c2c(cc3c(c2O)C(=O)c2c(O)ccc(O)c2C3=O)C1C(=O)OC (stereo not shown) [NSC265211],39.6,"IC50 (IC50, inhibition of IN-GCN2 interaction, SAR study, fresh dilutions from powder, at least three independent experiments): > 100 µM; inhibition at 100 µM (read-out: inhibition of IN-GCN2 interaction): ~60%; IN-GCN2 interaction (%) (listed as 265211): 39.59%"
COC1C(C)OC(OC2CC(C)(O)Cc3cc4c(c(O)c32)C(=O)c2c(O)cc3c(c2C4=O)OC2OC3(C)C(O)C(N(C)C)C2O)C(OC)C1(C)OC (stereo not shown) [NSC265450],99.51,–
O=C1C=C[C@H](O)[C@@]2(CO)O[C@@H]12 [NSC266032],108.08,–
CC(=O)OC1C(OC(C)=O)C2C(C)CC3OC(=O)C(C)C3CC2(C)C1OC(C)=O (stereo not shown) [NSC266071],100.86,–
O=C1N[C@@H]2C(=C[C@H](O)[C@@H](O)[C@H]2O)c2cc3c(c(O)c21)OCO3 [NSC266535],138.97,–
CC(=O)O[C@@H]1C[C@H]2O[C@@H]3C=C(C)CC[C@]3(C)[C@]1(C)[C@]21CO1 [NSC267023],–,"effect on IN-GCN2 interaction in dose-response, in words (dose-response assessment): inactive"
CO[C@@H]1C[C@](C)(O)Cc2cc3c(c(O)c21)C(=O)c1c(O)cc2c(c1C3=O)O[C@@H]1O[C@@]2(C)[C@H](O)[C@@H](N(C)C)[C@@H]1O [NSC269148],113.29,–
CC(=O)O[C@@H]1[C@@H](O)C2=C3[C@]4(C)[C@@H]1C(C)(C)C(=O)C[C@@H]4[C@]3(O)[C@H](OC(C)=O)[C@@]1(C[C@@H]1C)C2=O [NSC270914],122.29,–
Cc1c(N)nc([C@H](CC(N)=O)NC[C@H](N)C(N)=O)nc1C(=O)N[C@H](C(=O)N[C@H](C)[C@@H](O)[C@H](C)C(=O)N[C@H](C(=O)NCCc1nc(-c2nc(C(=O)NCCCN[C@@H](C)c3ccccc3)cs2)cs1)[C@@H](C)O)[C@@H](O[C@@H]1O[C@@H](CO)[C@@H](O)[C@H](O)[C@@H]1O[C@H]1O[C@H](CO)[C@@H](O)[C@H](OC(N)=O)[C@@H]1O)c1cnc[nH]1 [NSC276382],37.70,–
C[C@@H](N)C(=O)NC(CO)C(O)C(N)C=O.Cl (stereo partly shown) [NSC278619],77.59,–
CC[C@H](C)C(=O)O[C@H]1CCC=C2C=C[C@H](C)[C@H](CC[C@@H]3C[C@@H](O)CC(=O)O3)[C@H]21 [NSC281245],54.75,–
CCCCCCCCCCCCCCCCCCOCC(O)CO (stereo not shown) [NSC284200],138.26,–
CC1(C)C[C@]23[C@@H]4COC(=O)[C@H]2CC[C@H]1[C@@H]3CC4=O [NSC284437],100.65,–

# Source: paper PMC12390684 (Viruses, 2025)
